# Laboratory results: BindingDB's records for doi:10.1016/j.chembiol.2007.05.004 (University of Tokyo, 2007)
# Target: T1, Cytochrome P450 1B1 (Homo sapiens, UniProt Q16678)
# T1 sequence (Q16678 whole entry): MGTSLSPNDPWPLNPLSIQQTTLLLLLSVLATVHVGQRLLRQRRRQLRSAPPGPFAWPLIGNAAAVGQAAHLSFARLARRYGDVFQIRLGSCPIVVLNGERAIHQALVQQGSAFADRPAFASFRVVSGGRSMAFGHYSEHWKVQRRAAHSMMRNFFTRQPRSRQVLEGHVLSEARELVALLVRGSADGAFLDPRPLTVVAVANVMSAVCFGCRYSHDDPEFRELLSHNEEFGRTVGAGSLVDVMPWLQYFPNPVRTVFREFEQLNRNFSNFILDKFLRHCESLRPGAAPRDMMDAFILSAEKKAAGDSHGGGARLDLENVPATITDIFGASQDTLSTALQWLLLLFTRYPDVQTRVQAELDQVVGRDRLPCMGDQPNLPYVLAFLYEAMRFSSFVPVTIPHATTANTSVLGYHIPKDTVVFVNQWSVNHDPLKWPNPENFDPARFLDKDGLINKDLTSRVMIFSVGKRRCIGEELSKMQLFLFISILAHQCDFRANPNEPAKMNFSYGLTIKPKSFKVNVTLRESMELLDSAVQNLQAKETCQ
# Assay: EROD Assay
# Conditions: pH 8; 37 °C
# Text: The ethoxyresorufin-O-deethylase (EROD) assay is used to test the activity of CYP1B1.
row,Ki,Structure (SMILES)
1,323 nM,"Oc1cc(O)cc(/C=C/c2ccc(F)cc2)c1 [Stilbene, 8f]"
2,177 nM,"Oc1ccc(/C=C/c2cc(O)cc(O)c2)cc1 [5-[(E)-2-(4-hydroxyphenyl)ethenyl]benzene-1,3-diol]"
3,1180 nM,"Oc1cc(O)cc(/C=C/c2ccsc2)c1 [Stilbene, 16f]"
4,74.3 nM,"Oc1cc(O)cc(/C=C/c2ccccc2)c1 [(E)-5-(2-phenylethenyl)-1,3-benzenediol]"
5,1110 nM,"Oc1cc(O)cc(/C=C/c2ccoc2)c1 [Stilbene, 15f]"
